Measurements published in paper PMC8175240, “Integrase-derived peptides together with CD24-targeted lentiviral particles inhibit the growth of CD24 expressing cancer cells” (Oncogene, 2021).
≈ marks a conversion by molar mass, not a printed value. Residues, ends and D or L forms follow the SMILES beside them.

What was measured:
[1] = Solubility of IN-derived peptides in PBS; assay type: physicochemical; conditions: for Solubility: at 0 min, verified at 60 min, LC-MS
Procedure: (§1) Analytic HPLC-MS was performed using an Agilent 1260 series Liquid Chromatography/Mass Selective Detector (MSD) equipped with an electrospray interface and a UV diode array detector. Analyses were performed on an ACE C8, 50 × 3.0 mm, 3 µm column, with an isocratic 0.1% formic acid/ACN eluent, at a rate of 1 ml/min over a period of 5 min. UV absorption was measured at 280 nm, 220 nm, and 215–395 nm. MS analysis was performed with ESI (electron spray ionization) with a positive ionization method.
(§2) Four reaction systems were prepared; INS and INR2 in human plasma, INS and INR2 in rat plasma (Supplementary Table 2). Freshly prepared 10 mg/ml stock solution of the peptides was injected into plasma or PBS solution (1:1). The mixture was diluted with methanol to precipitate the plasma proteins. The samples were filtered through PTFE 0.45 µm filters and run in LC-MS. Samples were taken at the following times: 0, 15, 30, 60, 120, 240, and 480 min and after 24 h.
(§3) Plasma solubility was determined at 0 min and was verified at 60 min (if no degradation was observed).

[2] = Solubility of IN-derived peptides in human plasma; assay type: physicochemical; conditions: LC-MS
Procedure: as §1, §2, §3

[3] = Solubility of IN-derived peptides in rat plasma; assay type: physicochemical; conditions: LC-MS
Procedure: as §1, §2, §3

CHO-WBL cells = assay: Chromosomal aberration assay (genotoxicity); assay type: cell-based, Chinese hamster; conditions: for % Gaps / % Structural aberration without gaps / Cells with endoreduplication (%) / Cells with polyploidy (%) / Cytotoxicity (%) / % Structural aberrant cells: harvest 22 h; for Cytotoxicity (%): cell growth inhibition relative to negative control; for % Structural aberrant cells: cells with only gaps not included
Procedure: All cells were cultured for 22 h after initiation of INS treatment.

[4] = tested on: Lymphocytes of healthy volunteers; assay: Cytotoxicity of peptides, WST-1; assay type: cell-based, human; conditions: peptide alone
Procedure: Written informed consent was obtained from all eligible participants prior to entry into the study. Approval for this study was provided by Kaplan Medical Center’s Ethics Committee (Protocol No. ZMS1/2016). Lymphocytes of healthy volunteers were isolated from the peripheral blood by Ficoll-Paque density gradient centrifugation. Cells were incubated in DMEM with different peptide concentrations for 72 h. Then, 100 µl of cells were taken for toxicity testing using a quantitative cell viability test, the WST-1 assay.

SD rats = assay: 28-day repeated dose toxicity study; assay type: in vivo, rat; conditions: slow IV bolus twice weekly for 4 weeks, 4 weeks recovery; male and female SD rats; highest dose tested
Procedure: Four weeks of repeated dosing followed by four weeks of recovery was performed in female and male SD rats, via slow IV bolus of the INS peptide. Eighty rats (40 males and 40 females) were utilized for the main study groups (n = 10 per study group). An additional 40 animals (20 males and 20 females) were used as recovery groups (n = 5 per study group). Group allocation was done without investigator blinding. Study evaluations included: mortality and morbidity, body weight, food consumption, clinical signs, ophthalmological observation, blood collection for hematology, clinical chemistry, coagulation, urine analysis, necropsy, and gross pathology, organ weight, and histopathology. The study was approved by the Institutional Review Board of Tel Aviv Sourasky Medical Center.

H1975 lung cancer cells = assay: Cytotoxicity of peptides without lentiviral particles, MTT; assay type: cell-based, human; conditions: peptide alone, three times over ten days
Procedure: H1975 lung cancer cells were treated three times over the course of 10 days (on days 2, 4, and 7) with different concentrations of the tested peptides. Following ten days of incubation, cells were analyzed for potential toxicity using a quantitative cell viability test, the MTT assay.

[5] = Stability test in human plasma; assay type: in vitro ADME; conditions: for Analyte Remaining % / Concentration calculated from LC-MS data: human plasma, 10 mg/ml stock into plasma 1:1, LC-MS; for Concentration calculated from LC-MS data: methanol precipitation, 0.45 µm filtration; for Stability: rat and human plasma
Procedure: as §1, §2

HeLa cells = tested on: HeLa cells; design: method as in PMID 20517955; conditions: cited from earlier work
[6] = from 5 mg/mL sample (10 mg/ml stock into plasma 1:1), at 0 min, verified at 60 min, methanol precipitation, PTFE 0.45 µm filtration
[7] = INS 10 µg/mL, +S9, 3 h treatment
[8] = INS 10 µg/mL, −S9, 3 h treatment
[9] = INS 10 µg/mL, −S9, 22 h treatment
[10] = INS 25 µg/mL, +S9, 3 h treatment
[11] = INS 25 µg/mL, −S9, 3 h treatment
[12] = INS 25 µg/mL, −S9, 22 h treatment
[13] = INS 50 µg/mL (precipitate), +S9, 3 h treatment
[14] = INS 50 µg/mL (precipitate), −S9, 3 h treatment
[15] = INS 50 µg/mL (precipitate), −S9, 22 h treatment

## CC[C@H](C)[C@H](NC(=O)[C@H](Cc1ccccc1)NC(=O)[C@@H](NC(=O)[C@H](C)NC(=O)[C@H](CCSC)NC(=O)[C@H](CCC(N)=O)NC(=O)[C@@H](NC(=O)[C@H](C)NC(=O)[C@@H](NC(=O)[C@@H](N)Cc1c[nH]c2ccccc12)[C@@H](C)O)C(C)C)C(C)C)C(=O)N[C@@H](Cc1c[nH]cn1)C(=O)N[C@@H](CC(N)=O)C(=O)N[C@@H](Cc1ccccc1)C(=O)N[C@@H](CCCCN)C(=O)N[C@@H](CCCNC(=N)N)C(=O)N[C@@H](CCCCN)C(=O)O [INS] (H-WTAVQMAVFIHNFKRK-OH)
[1]; % of 5 mg/mL sample
  Solubility: 89.2%
[1]; from 5 mg/mL sample (10 mg/ml stock into PBS 1:1), methanol dilution, PTFE 0.45 µm filtration
  Solubility: 4.46 mg/mL (≈ 2260 µM)
[1]; rat and human plasma
  Solubility (in words): highly soluble
[2]; % of 5 mg/mL sample
  Solubility: 62%
[2]; [6]
  Solubility: 3.1 mg/mL (≈ 1570 µM)
[3]; % of 5 mg/mL sample
  Solubility: 80.2%
[3]; [6]
  Solubility: 4.01 mg/mL (≈ 2030 µM)
CHO-WBL cells; 10-50 µg/mL, ±S9, 3 and 22 h
  Induction of structural chromosomal aberrations (conclusion): negative
CHO-WBL cells; [7]
  % Gaps: 0.3%
  % Structural aberration without gaps: 1.0%
  Cells with endoreduplication (%): 0.0%
  Cells with polyploidy (%): 0.0%
  Cytotoxicity (%): 5%
  % Structural aberrant cells: 1.0%
CHO-WBL cells; [8]
  % Gaps: 0.7%
  % Structural aberration without gaps: 1.3%
  Cells with endoreduplication (%): 0.0%
  Cells with polyploidy (%): 0.0%
  Cytotoxicity (%): 4%
  % Structural aberrant cells: 1.3%
CHO-WBL cells; [9]
  % Gaps: 0.7%
  % Structural aberration without gaps: 1.0%
  Cells with endoreduplication (%): 0.0%
  Cells with polyploidy (%): 0.0%
  Cytotoxicity (%): −1%
  % Structural aberrant cells: 1.0%
CHO-WBL cells; [10]
  % Gaps: 0.3%
  % Structural aberration without gaps: 1.0%
  Cells with endoreduplication (%): 0.3%
  Cells with polyploidy (%): 0.0%
  Cytotoxicity (%): −1%
  % Structural aberrant cells: 1.0%
CHO-WBL cells; [11]
  % Gaps: 0.3%
  % Structural aberration without gaps: 1.0%
  Cells with endoreduplication (%): 0.3%
  Cells with polyploidy (%): 0.0%
  Cytotoxicity (%): −10%
  % Structural aberrant cells: 1.0%
CHO-WBL cells; [12]
  % Gaps: 0.0%
  % Structural aberration without gaps: 1.0%
  Cells with endoreduplication (%): 0.0%
  Cells with polyploidy (%): 0.0%
  Cytotoxicity (%): −3%
  % Structural aberrant cells: 1.0%
CHO-WBL cells; [13]
  % Gaps: 0.3%
  % Structural aberration without gaps: 1.7%
  Cells with endoreduplication (%): 7.3%
  Cells with polyploidy (%): 0.0%
  Cytotoxicity (%): 46%
  % Structural aberrant cells: 1.7%
CHO-WBL cells; [14]
  % Gaps: 0.7%
  % Structural aberration without gaps: 1.3%
  Cells with endoreduplication (%): 0.0%
  Cells with polyploidy (%): 0.0%
  Cytotoxicity (%): −7%
  % Structural aberrant cells: 1.3%
CHO-WBL cells; [15]
  % Gaps: 0.3%
  % Structural aberration without gaps: 1.3%
  Cells with endoreduplication (%): 0.0%
  Cells with polyploidy (%): 0.0%
  Cytotoxicity (%): −1%
  % Structural aberrant cells: 1.3%
[4]
  Viability of primary lymphocytes: not affected
SD rats
  no-observed-adverse-effect level (NOAEL): 7.5 mg/kg
H1975 lung cancer cells
  Effect on lung cancer cell viability: no effect
[5]; 0 h
  Analyte Remaining %: 65.7%
  Concentration calculated from LC-MS data: 3290 µg/mL
[5]; 0.25 h
  Analyte Remaining %: 60.9%
  Concentration calculated from LC-MS data: 3040 µg/mL
[5]; 0.5 h
  Analyte Remaining %: 71.1%
  Concentration calculated from LC-MS data: 3590 µg/mL
[5]; 1 h
  Analyte Remaining %: 58.4%
  Concentration calculated from LC-MS data: 2920 µg/mL
[5]; 2 h
  Analyte Remaining %: 62.7%
  Concentration calculated from LC-MS data: 3130 µg/mL
[5]; 4 h
  Analyte Remaining %: 62.2%
  Concentration calculated from LC-MS data: 3110 µg/mL
[5]; 8 h
  Analyte Remaining %: 44.2%
  Concentration calculated from LC-MS data: 2210 µg/mL
[5]; 24 h
  Analyte Remaining %: 23.8%
  Concentration calculated from LC-MS data: 1190 µg/mL
[5]; after 8 h
  Stability: 40%
[5]; after 24 h
  Stability: ~ 25%
HeLa cells
  Cell permeability: cell-permeable
  Toxicity: non-toxic
